Results reported in ChEMBL document CHEMBL6096631, “The application of PROTACs in immune-inflammation diseases” (Bioorg Med Chem, 2024).
One block for each compound: values may come before it.

How the values were obtained:
Type in all cases: cell-based
[1] = molecular target: T1, Protein cereblon/Tyrosine-protein kinase BTK (Homo sapiens, UniProt Q06187+Q96SW2); assay: PROTAC activity at CRBN/BTK in human Ramos cells assessed as protein degradation
Target sequence in this assay (Q06187 whole entry): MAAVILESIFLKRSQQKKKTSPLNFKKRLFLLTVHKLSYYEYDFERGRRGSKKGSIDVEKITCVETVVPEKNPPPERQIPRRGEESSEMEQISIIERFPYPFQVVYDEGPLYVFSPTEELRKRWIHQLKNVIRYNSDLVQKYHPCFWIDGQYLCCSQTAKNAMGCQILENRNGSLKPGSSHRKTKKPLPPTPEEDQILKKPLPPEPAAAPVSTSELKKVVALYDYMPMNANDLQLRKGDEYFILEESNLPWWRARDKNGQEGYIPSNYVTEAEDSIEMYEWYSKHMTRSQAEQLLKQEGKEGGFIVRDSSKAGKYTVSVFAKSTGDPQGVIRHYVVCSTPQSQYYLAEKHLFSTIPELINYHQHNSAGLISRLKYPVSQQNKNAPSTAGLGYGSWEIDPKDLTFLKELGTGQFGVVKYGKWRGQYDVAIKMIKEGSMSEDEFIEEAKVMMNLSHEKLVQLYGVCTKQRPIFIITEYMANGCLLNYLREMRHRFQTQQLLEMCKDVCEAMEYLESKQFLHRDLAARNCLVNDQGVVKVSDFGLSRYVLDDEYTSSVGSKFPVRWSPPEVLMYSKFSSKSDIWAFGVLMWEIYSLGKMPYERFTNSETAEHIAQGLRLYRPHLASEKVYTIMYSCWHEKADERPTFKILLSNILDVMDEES
Target sequence in this assay (Q96SW2 whole entry): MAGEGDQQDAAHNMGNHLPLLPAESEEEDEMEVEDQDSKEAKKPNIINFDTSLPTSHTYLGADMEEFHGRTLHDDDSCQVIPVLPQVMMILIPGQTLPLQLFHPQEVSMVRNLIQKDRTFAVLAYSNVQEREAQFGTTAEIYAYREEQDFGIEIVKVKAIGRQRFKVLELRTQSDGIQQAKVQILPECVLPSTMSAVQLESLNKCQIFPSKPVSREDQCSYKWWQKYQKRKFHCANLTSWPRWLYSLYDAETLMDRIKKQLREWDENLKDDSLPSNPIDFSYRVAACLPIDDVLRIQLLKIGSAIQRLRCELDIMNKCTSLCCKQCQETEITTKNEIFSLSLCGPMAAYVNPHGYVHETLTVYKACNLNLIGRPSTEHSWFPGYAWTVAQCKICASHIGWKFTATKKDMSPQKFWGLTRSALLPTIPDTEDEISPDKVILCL

[2] = molecular target: T1, Protein cereblon/Tyrosine-protein kinase BTK; assay: PROTAC activity at CRBN/BTK in human Ramos cells assessed as induction of protein degradation by measuring maximal efficacy at 10 uM relative to control
[3] = PROTAC activity at VHL/human p38alpha in MDA-MB-231 cells assessed as p38alpha degradation
[4] = molecular target: Protein cereblon/Non-receptor tyrosine-protein kinase TYK2 (Homo sapiens, UniProt P29597+Q96SW2); assay: PROTAC activity at CRBN/TYK2 in HEL cells assessed as TYK2 degradation incubated for 24 hrs by Western blotting analysis
[5] = molecular target: T2, von Hippel-Lindau disease tumor suppressor/Mitogen-activated protein kinase 14 (Homo sapiens, UniProt Q16539+P40337); assay: PROTAC activity at VHL/p38alpha in human THP-1 cells assessed as induction of protein degradation by measuring maximal efficacy at 10 uM incubated for 16 hrs by Western blot analysis relative to control
Target sequence in this assay (P40337 whole entry partner): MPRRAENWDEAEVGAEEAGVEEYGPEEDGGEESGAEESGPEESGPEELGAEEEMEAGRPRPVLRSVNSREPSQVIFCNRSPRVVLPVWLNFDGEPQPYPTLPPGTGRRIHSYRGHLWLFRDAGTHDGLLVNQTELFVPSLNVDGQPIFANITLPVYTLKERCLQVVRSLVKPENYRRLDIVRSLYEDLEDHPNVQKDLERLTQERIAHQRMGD
Target sequence in this assay (Q16539 2-360 limits assumed): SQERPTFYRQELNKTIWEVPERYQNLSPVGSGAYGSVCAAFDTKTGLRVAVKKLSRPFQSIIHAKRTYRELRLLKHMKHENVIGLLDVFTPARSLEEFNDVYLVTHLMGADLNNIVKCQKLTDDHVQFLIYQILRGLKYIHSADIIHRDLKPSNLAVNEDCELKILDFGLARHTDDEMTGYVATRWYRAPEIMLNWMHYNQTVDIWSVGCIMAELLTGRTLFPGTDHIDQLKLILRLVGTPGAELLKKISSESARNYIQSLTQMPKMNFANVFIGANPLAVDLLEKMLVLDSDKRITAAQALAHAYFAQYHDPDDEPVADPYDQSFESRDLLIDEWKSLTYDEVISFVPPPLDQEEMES

[6] = molecular target: T1, Protein cereblon/Tyrosine-protein kinase BTK; assay: PROTAC activity at CRBN/BTK in human Huh-7 cells assessed as protein degradation
Target sequence in this assay (Q06187 whole entry): as the sequence (Q06187 whole entry) above
Target sequence in this assay (Q96SW2 whole entry): as the sequence (Q96SW2 whole entry) above

[7] = molecular target: T3, von Hippel-Lindau disease tumor suppressor/Interleukin-1 receptor-associated kinase 4 (Homo sapiens, UniProt Q9NWZ3+P40337); assay: PROTAC activity at VHL E3 ligase/IRAK4 in human PBMC cells assessed as induction of degradation of IRAK4 incubated for 16 hrs by immunoblot analysis relative to control
[8] = molecular target: T3, von Hippel-Lindau disease tumor suppressor/Interleukin-1 receptor-associated kinase 4; assay: PROTAC activity at VHL E3 ligase/IRAK4 in human PBMC cells assessed as induction of degradation of IRAK4 incubated overnight by immunoblot analysis
Target sequence in this assay (Q9NWZ3 whole entry): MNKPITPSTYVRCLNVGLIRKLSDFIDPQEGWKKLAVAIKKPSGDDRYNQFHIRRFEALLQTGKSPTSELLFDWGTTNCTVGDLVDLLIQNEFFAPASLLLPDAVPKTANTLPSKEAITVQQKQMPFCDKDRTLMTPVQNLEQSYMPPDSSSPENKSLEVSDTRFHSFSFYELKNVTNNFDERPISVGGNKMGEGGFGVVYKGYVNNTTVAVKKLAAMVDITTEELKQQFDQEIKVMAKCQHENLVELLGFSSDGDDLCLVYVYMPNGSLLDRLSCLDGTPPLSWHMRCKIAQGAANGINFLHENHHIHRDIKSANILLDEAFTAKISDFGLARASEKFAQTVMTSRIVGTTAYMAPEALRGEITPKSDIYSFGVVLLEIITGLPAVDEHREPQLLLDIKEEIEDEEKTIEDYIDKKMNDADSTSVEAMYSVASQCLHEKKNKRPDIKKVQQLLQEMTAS
Target sequence in this assay (P40337 whole entry): as the sequence (P40337 whole entry partner) above

[9] = molecular target: T2, von Hippel-Lindau disease tumor suppressor/Mitogen-activated protein kinase 14; assay: PROTAC activity at VHL/p38alpha in human THP-1 cells assessed as MAPK degradation incubated for 16 hrs by Western blot analysis
[10] = molecular target: T4, Protein cereblon/Interleukin-1 receptor-associated kinase 4 (Homo sapiens, UniProt Q9NWZ3+Q96SW2); assay: PROTAC activity at CRBN/IRAK4 in human KARPAS-299 cells assessed as induction of IRAK4 degradation
Target sequence in this assay (Q9NWZ3 whole entry): as the sequence (Q9NWZ3 whole entry) above
Target sequence in this assay (Q96SW2 whole entry): as the sequence (Q96SW2 whole entry) above

[11] = molecular target: T5, von Hippel-Lindau disease tumor suppressor/Receptor-interacting serine/threonine-protein kinase 2 (Homo sapiens, UniProt O43353+P40337); assay: PROTAC activity at VHL/RIPK2 in human THP-1 cells assessed as RIPK2 degradation by measuring maximal efficacy at 10 nM measured after 16 hrs by Western blot analysis relative to control
Target sequence in this assay (O43353 whole entry, looked up): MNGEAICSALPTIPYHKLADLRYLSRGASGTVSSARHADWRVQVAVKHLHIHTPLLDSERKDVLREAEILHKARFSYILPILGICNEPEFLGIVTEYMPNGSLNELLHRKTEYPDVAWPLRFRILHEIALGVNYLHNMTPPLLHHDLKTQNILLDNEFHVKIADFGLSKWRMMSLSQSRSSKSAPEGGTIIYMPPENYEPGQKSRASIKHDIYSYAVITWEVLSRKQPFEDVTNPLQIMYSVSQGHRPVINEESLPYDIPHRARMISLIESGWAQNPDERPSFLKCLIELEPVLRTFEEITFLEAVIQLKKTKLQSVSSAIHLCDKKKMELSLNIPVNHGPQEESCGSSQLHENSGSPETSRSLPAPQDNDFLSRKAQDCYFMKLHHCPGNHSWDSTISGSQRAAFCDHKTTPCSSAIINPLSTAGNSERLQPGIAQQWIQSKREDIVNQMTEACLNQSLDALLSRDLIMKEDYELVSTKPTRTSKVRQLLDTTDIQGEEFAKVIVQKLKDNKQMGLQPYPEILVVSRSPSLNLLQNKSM
Target sequence in this assay (P40337 whole entry, looked up): as the sequence (P40337 whole entry partner) above

[12] = molecular target: T4, Protein cereblon/Interleukin-1 receptor-associated kinase 4; assay: PROTAC activity at CRBN/IRAK4 in human PBMC cells assessed as induction of degradation measured after 24 hrs by Immuno-blotting analysis
Target sequence in this assay (Q9NWZ3 whole entry): as the sequence (Q9NWZ3 whole entry) above
Target sequence in this assay (Q96SW2 whole entry): as the sequence (Q96SW2 whole entry) above

[13] = molecular target: T5, von Hippel-Lindau disease tumor suppressor/Receptor-interacting serine/threonine-protein kinase 2; assay: PROTAC activity at VHL/RIPK2 in human THP-1 cells assessed as RIPK2 degradation measured after 16 hrs by Western blot analysis
Target sequence in this assay (O43353 whole entry): as the sequence (O43353 whole entry, looked up) above
Target sequence in this assay (P40337 whole entry): as the sequence (P40337 whole entry partner) above

[14] = molecular target: T4, Protein cereblon/Interleukin-1 receptor-associated kinase 4; assay: PROTAC activity at CRBN/IRAK4 in human HEK293T cells assessed as induction of protein degradation by measuring maximal efficacy at 10 uM measured after 24 hrs by immunoblotting analysis relative to control

- DC50 [1]: 3.18 nM
- Emax [2]: 99.9%
SMILES: Nc1ncnc2c1c(-c1ccc(Oc3ccccc3)cc1)nn2C1CCN(C(=O)CN2CCN(CC3CN(c4ccc5c(c4)C(=O)N(C4CCC(=O)NC4=O)C5=O)C3)CC2)CC1 (centres undefined)

- DC50 [3]: 48.9 nM
SMILES: Cc1ccc(C(=O)NCCCCc2cn(CCCC(=O)NCCCCNc3cccc4c3C(=O)N(C3CCC(=O)NC3=O)C4=O)nn2)cc1-n1c(C)cc(OCc2ccc(F)cc2F)c(Br)c1=O (centres undefined)

- DC50 [4]: 14 nM
SMILES: CNC(=O)c1cnc(Nc2ccc(C(=O)NCCCCCCCCCC(=O)N[C@H](C(=O)N3C[C@H](O)C[C@H]3C(=O)NCc3ccc(-c4scnc4C)cc3)C(C)(C)C)cn2)cc1Nc1cccc(-c2ncn(C)n2)c1OC

- Emax [5]: 97.4%
SMILES: COc1cc2c(Oc3ccc(NC(=O)C4(C(=O)Nc5ccc(F)cc5)CC4)cc3F)ccnc2cc1OCCCCOCCCCOCC(=O)N[C@H](C(=O)N1C[C@H](O)C[C@H]1C(=O)NCc1ccc(-c2scnc2C)cc1)C(C)(C)C

- DC50 [6]: 17 nM
SMILES: COc1cc(C)c(Sc2cnc(NC(=O)c3ccc(N4CCN(CCCCCCCNC(=O)COc5cccc6c5C(=O)N(C5CCC(=O)NC5=O)C6=O)CC4)cc3)s2)cc1C(=O)N1CCN(C(C)=O)CC1 (centres undefined)

- DC50 [3]: 19.1 nM
SMILES: Cc1ccc(C(=O)NCCCCc2cn(CCCC(=O)NCCCCCCc3cccc4c3CN(C3CCC(=O)NC3=O)C4=O)nn2)cc1-n1c(C)cc(OCc2ccc(F)cc2F)c(Br)c1=O (centres undefined)

- Emax [7]: 91.7%
- DC50 [8]: 227 nM
SMILES: CCn1nc(C)cc1C(=O)Nc1nc2cc(C(=O)NCCCCCCCCC(=O)N[C@H](C(=O)N3C[C@H](O)C[C@H]3C(=O)NCc3ccc(-c4scnc4C)cc3)C(C)(C)C)cc(OC)c2n1C/C=C/Cn1c(NC(=O)c2cc(C)nn2CC)nc2cc(C(N)=O)cc(OCCCN3CCOCC3)c21

- Emax [5]: 99.4%
- DC50 [9]: 46.2 nM
SMILES: COc1cc2c(Oc3ccc(NC(=O)C4(C(=O)Nc5ccc(F)cc5)CC4)cc3F)ccnc2cc1OCCOCCOCCOc1cc(-c2scnc2C)ccc1CNC(=O)[C@@H]1C[C@@H](O)CN1C(=O)[C@H](C(C)C)N1Cc2ccccc2C1=O

- DC50 [10]: 17.3 nM
SMILES: O=C1CCC(N2C(=O)c3cccc(N4CCN(C(=O)C5CCN(c6ccc(NC(=O)c7cnc(Oc8ccccc8)nc7)cc6)CC5)CC4)c3C2=O)C(=O)N1 (centres undefined)

- Emax [11]: 95%
SMILES: Cc1ncsc1-c1ccc(CNC(=O)[C@@H]2C[C@@H](O)CN2C(=O)[C@@H](NC(=O)COCCOCCOCCOCCOc2cc3nccc(Nc4ccc5scnc5c4)c3cc2S(=O)(=O)C(C)(C)C)C(C)(C)C)cc1

- DC50 [12]: 151 nM
SMILES: CC[C@@H]1[C@H](F)C(=O)N[C@@H]1COc1ncc(C#CCN2CCC3(CC2)CCN(c2ncc(C(=O)N[C@H](C(=O)N4C[C@H](O)C[C@H]4C(=O)NCc4ccc(-c5scnc5C)cc4)C(C)(C)C)cn2)CC3)c2cc(C(N)=O)c(OC)cc12

- Emax [11]: 94.3%
- DC50 [13]: 9.4 nM
SMILES: CN[C@@H](C)C(=O)N[C@H](C(=O)N1CCC[C@H]1c1nc(C(=O)c2ccc(F)cc2)cs1)C1CCN(C(=O)c2cnc(N3CCN(CCOc4cc5ncnc(Nc6n[nH]c(C)c6C)c5cc4S(=O)(=O)C(C)(C)C)CC3)nc2)CC1

- DC50 [8]: 3.2 nM
SMILES: O=C(/C=C/C(=O)Nc1ccc(NC(=O)c2ccc([N+](=O)[O-])o2)cc1)NCCCCCCNc1cccc2c1C(=O)N(C1CCC(=O)NC1=O)C2=O (centres undefined)

- Emax [14]: 90%
SMILES: CC(C)Nc1cc(-n2ccc3cc(C#N)cnc32)ncc1C(=O)N[C@H]1CC[C@H](C(=O)NCCOCCNC(=O)COc2cccc3c2C(=O)N(C2CCC(=O)NC2=O)C3=O)CC1 (some centres undefined)

- Emax [11]: 90%
SMILES: CN[C@H](C)C(=O)N[C@@H](C(=O)N1C[C@H](NC(=O)c2cnc(N3CCN(CCCOc4cc5ncnc(Nc6n[nH]c(C)c6C)c5cc4S(=O)(=O)C(C)(C)C)CC3)cn2)C[C@@H]1C(=O)Nc1c(F)cccc1F)C(C)(C)C
